≈ marks a conversion by molar mass, not a printed value.
Columns and labels:
Format in all cases: cell-based, Staphylococcus aureus
[1] = system: Staph aureus 2812; test: MIC, microtiter broth dilution (CLSI M7-A7), Assay 1, Table 12 column E, no serum; conditions: for MIC: Staphylococcus aureus, 2812, Staph aureus 2812, Assay 1, no serum; for MIC, column E: Staph aureus 2812, Assay 1, no serum
Method in brief: (§1)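 Staphylococcus aureus susceptibility is measured by CLSI M7-A7 broth microdilution in microtiter trays. For serum testing, bacteria are inoculated into Mueller-Hinton Broth containing 50% pooled inactivated human serum. The MIC in μg/ml is the lowest concentration preventing visible growth.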

[2] = system: Staph aureus 2811; test: MIC, microtiter broth dilution (CLSI M7-A7), Assay 1, Table 12 column D, no serum; conditions: for MIC: Staphylococcus aureus, 2811, Staph aureus 2811, Assay 1, no serum; for MIC, column D: Staph aureus 2811, Assay 1, no serum
Method in brief: as §1

[3] = system: Staph aureus 1146; test: MIC in Mueller-Hinton Broth with 50% pooled inactivated human serum, Assay 1, Table 12; conditions: for MIC: Staphylococcus aureus, 1146, Staph aureus 1146, Assay 1, 50% human serum, read-out: MIC, column C; for MIC, column C: Staph aureus 1146, Assay 1, 50% human serum
Method in brief: as §1

[4] = system: Staph aureus 1146; test: MIC, microtiter broth dilution (CLSI M7-A7), Assay 1, Table 12 column B, no serum; conditions: for MIC: Staphylococcus aureus, 1146, Staph aureus 1146, Assay 1, no serum; for MIC, column B: Staph aureus 1146, Assay 1, no serum
Method in brief: as §1

[5] = system: Staph aureus 1095 MRSA; test: MIC, microtiter broth dilution (CLSI M7-A7), Assay 1, Table 12 column A, no serum; conditions: Assay 1, no serum; for MIC: Staphylococcus aureus, MRSA
Method in brief: as §1

MIC [1] | MIC [2] | MIC [3] | MIC [4] | MIC [5] | MIC, column E [1] | MIC, column D [2] | MIC, column C [3] | MIC, column B [4] | MIC, column A [5] | SMILES
32 µg/mL (≈ 67.3 µM) | 16 µg/mL (≈ 33.6 µM) | 32 µg/mL (≈ 67.3 µM) | 16 µg/mL (≈ 33.6 µM) | 32 µg/mL (≈ 67.3 µM) |  |  |  |  |  | COc1ccc2nccc([C@@H](O)CNC3CCN([C@H]4C[C@@H](c5ccccc5)C4)CC3C(=O)O)c2c1 (stereo partly drawn) [Example 123, 4-{[(2R)-2-hydroxy-2-(6-methoxyquinolin-4-yl)ethyl]amino}-1-(cis-3-phenylcyclobutyl)piperidine-3-carboxylic acid]
 |  |  |  |  | >64 µg/mL | >64 µg/mL | >64 µg/mL | >64 µg/mL | >64 µg/mL | COc1ccc2nccc(C(O)CC[C@@H]3CCN(C4CN(Cc5ccccn5)C4)C[C@@H]3C(=O)O)c2c1 (stereo partly drawn) [Example 127, (3R,4R)-4-(3-hydroxy-3-(6-methoxyquinolin-4-yl)propyl)-1-(1-(pyridine-2-ylmethyl)azetidin-3-yl)piperdine-3-carboxylic acid]
> 64 µg/mL | > 64 µg/mL | > 64 µg/mL | > 64 µg/mL | > 64 µg/mL |  |  |  |  |  | COc1ccc2nccc(C(O)CC[C@@H]3CCN(C4CN(C5CCCC5)C4)C[C@@H]3C(=O)O)c2c1 (stereo partly drawn) [Example 132, (3R,4R)-1-(1-cyclopentylazetidin-3-yl)-4-[3-hydroxy-3-(6-methoxyquinolin-4-yl)propyl]piperidine-3-carboxylic acid]
≤ 0.0625 µg/mL | 0.125 µg/mL (≈ 0.262 µM) | 2 µg/mL (≈ 4.2 µM) | ≤ 0.0625 µg/mL |  |  |  |  |  | 0.25 µg/mL (≈ 0.525 µM) | COc1ccc2nccc(C(F)CC[C@@H]3CCN(C4CC(c5ccccc5)C4)C[C@@H]3C(=O)O)c2c1 (stereo partly drawn) [Example 133, (3R,4R)-4-(3-fluoro-3-(6-methoxyquinolin-4-yl)propyl)-1-(3-phenylcyclobutyl)piperidine-3-carboxylic acid]
 |  |  |  |  | <=.0625 μg/ml | <=.0625 μg/ml | 4 µg/mL (≈ 8.39 µM) | <=.0625 μg/ml | <=.0625 μg/ml | COc1ccc2nccc(C(F)CC[C@@H]3CCN(C4CC(c5ccccc5)C4)C[C@@H]3C(=O)O)c2c1 (stereo partly drawn) [Example 134, (3R,4R)-4-(3-fluoro-3-(6-methoxyquinolin-4-yl)propyl)-1-(3-phenylcyclobutyl)piperidine-3-carboxylic acid]

Continued, compound first:

SMILES | MIC [1] | MIC [2] | MIC [3] | MIC [4] | MIC [5] | MIC, column E [1] | MIC, column D [2] | MIC, column C [3] | MIC, column B [4] | MIC, column A [5]
COc1ccc2ncc(Cl)c(CCCC3(C(=O)O)CCN(C4CN(c5ccccn5)C4)CC3)c2c1 [Example 126, 4-(3-(3-chloro-6-methoxyquinolin-4-yl)propyl)-1-(1-(pyridin-2-yl)azetidin-3-yl)piperidine-4-carboxylic add] |  |  |  |  |  | 4 µg/mL (≈ 8.08 µM) | 2 µg/mL (≈ 4.04 µM) | >64 µg/mL | 8 µg/mL (≈ 16.2 µM) | >64 µg/mL
COc1ccc2nccc(C(O)CC[C@@H]3CCN(C4CN(C5CCOCC5)C4)C[C@@H]3C(=O)O)c2c1 (stereo partly drawn) [Example 128, (3R,4R)-4-[3-hydroxy-3-(6-methoxyquinolin-4-yl)propyl]-1-[1-(tetrahydro-2H-pyran-4-yl)azetidin-3-yl] piperidine-3-carboxylic acid] | > 64 µg/mL | > 64 µg/mL | > 64 µg/mL | > 64 µg/mL | > 64 µg/mL |  |  |  |  | 
COc1ccc2nccc(C(O)CC[C@@H]3CCN(C4CN(C5CCOC5)C4)C[C@@H]3C(=O)O)c2c1 (stereo partly drawn) [Example 129, (3R,4R)-4-[3-hydroxy-3-(6-methoxyquinolin-4-yl)propyl]-1-[1-(tetrahydrofuran-3-yl)azetidin-3-yl] piperidine-3-carboxylic acid] | > 64 µg/mL | > 64 µg/mL | > 64 µg/mL | > 64 µg/mL | > 64 µg/mL |  |  |  |  | 
COc1ccc2nccc(C(O)CC[C@@H]3CCN(C4CN(C5CCCCC5)C4)C[C@@H]3C(=O)O)c2c1 (stereo partly drawn) [Example 131, (3R,4R)-1-(1-cyclohexylazetidin-3-yl)-4-[3-hydroxy-3-(6-methoxyquinolin-4-yl)propyl]piperidine-3-carboxylic acid] | > 64 µg/mL | > 64 µg/mL | > 64 µg/mL | > 64 µg/mL | > 64 µg/mL |  |  |  |  | 
